Measured values taken from patent US20260216170A1, “TETRAHYDROISOQUINOLINE HETEROBIFUNCTIONAL BCL-XL DEGRADERS” (Treeline Biosciences, Inc., priority 2023, published 2026).

Target: T1, Human BCL-XL protein (N-terminal HiBiT tagged BCL-XL expressed in HT1080 cells) (Homo sapiens, UniProt Q07817)
T1 construct: expressed in transfected cells; host or cells: HT-1080 (ATCC CCL-121), stably transduced with lentivirus pLV-UBC-N-HiBiT-BCL-XL-PGK-puro and selected with puromycin
Experiment: HiBiT Based Degradation Assay
Type: cell-based
Details: 24 hours incubation; for DC50: BCL-XL degradation, HT1080 cells expressing N-HiBiT-BCL-XL, normalized with DMSO control, geometric mean for multiple data points, read-out: EC50 (24 h); for Ymin (24 h): bottom of BCL-XL degradation curve (remaining HiBiT-BCL-XL signal vs DMSO control), HT1080 cells
Outline: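 BCL-XL degradation was read as Nano-Glo HiBiT lytic luminescence relative to DMSO after a 24 h compound treatment of HT1080 cells carrying stably integrated N-HiBiT-BCL-XL. EC50 values come from four-parameter logistic curves, with the hook-curve minimum fixed as bottom, and are geometric means where tested repeatedly.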

T1 sequence (Q07817 whole entry): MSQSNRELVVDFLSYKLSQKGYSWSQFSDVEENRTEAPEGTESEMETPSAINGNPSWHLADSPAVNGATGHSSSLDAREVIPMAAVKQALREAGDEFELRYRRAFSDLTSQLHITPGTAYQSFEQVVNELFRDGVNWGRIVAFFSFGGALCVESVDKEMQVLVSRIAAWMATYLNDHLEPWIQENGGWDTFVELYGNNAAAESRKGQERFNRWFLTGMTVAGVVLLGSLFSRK

| SMILES | DC50 | Ymin (24 h) |
| --- | --- | --- |
| Cn1nc(C2CCC(=O)NC2=O)c2ccc(NC(=O)CN3CCC(CCCOc4ccc(-c5ccc(N6CCc7cccc(C(=O)Nc8nc9ccccc9s8)c7C6)nc5C(=O)O)c(C(F)(F)F)c4)CC3)cc21 (stereo not shown) [Compound 129, 6-(8-(benzo[d]thiazol-2-ylcarbamoyl)-3,4-dihydroisoquinolin-2(1H)-yl)-3-(4-(3-(1-(2-((3-(2,6-dioxopiperidin-3-yl)-1-methyl-1H-indazol-6-yl)amino)-2-oxoethyl)piperidin-4-yl)propoxy)-2-(trifluoromethyl)phenyl)picolinic acid] | < 10 nM | B (30% ≤ Ymin < 50%) |
| Cn1nc(C2CCC(=O)NC2=O)c2ccc(NC(=O)CN3CCC4(CC3)CC(Oc3cccc(-c5ccc(N6CCc7ccnc(C(=O)Nc8nc9ccccc9s8)c7C6)nc5C(=O)O)c3C(F)(F)F)C4)c(F)c21 (stereo not shown) [Compound 214] | < 10 nM | B (30% ≤ Ymin < 50%) |
| Cc1cc(OC[C@H]2C[C@@H]2C2CCN(CC(=O)Nc3ccc4c(C5CCC(=O)NC5=O)nn(C)c4c3)CC2)ccc1-c1ccc(N2CCc3cccc(C(=O)Nc4nc5ccccc5s4)c3C2)nc1C(=O)O (relative stereo) [Compound 1003a, 6-(8-(benzo[d]thiazol-2-ylcarbamoyl)-3,4-dihydroisoquinolin-2(1H)-yl)-3-(4-(((1S,2R)-2-(1-(2-((3-(2,6-dioxopiperidin-3-yl)-1-methyl-1H-indazol-6-yl)amino)-2-oxoethyl)piperidin-4-yl)cyclopropyl)methoxy)-2-methylphenyl)picolinic acid] | < 10 nM | A (Ymin < 30%) |
| Cc1c(OC2CC3(CCN(CC(=O)Nc4ccc5c(C6CCC(=O)NC6=O)nn(C)c5n4)CC3)C2)cccc1-c1ccc(N2CCc3cccc(C(=O)Nc4nc5ccccc5s4)c3C2)nc1C(=O)O (stereo not shown) [Compound 194, 6-(8-(benzo[d]thiazol-2-ylcarbamoyl)-3,4-dihydroisoquinolin-2(1H)-yl)-3-(3-((7-(2-((3-(2,6-dioxopiperidin-3-yl)-1-methyl-1H-pyrazolo[3,4-b]pyridin-6-yl)amino)-2-oxoethyl)-7-azaspiro[3.5]nonan-2-yl)oxy)-2-methylphenyl)picolinic acid] | < 10 nM | B (30% ≤ Ymin < 50%) |
| Cc1cc(OCCCC2(O)CCN(CC(=O)Nc3ccc4c(C5CCC(=O)NC5=O)nn(C)c4c3)CC2)ccc1-c1ccc(N2CCc3cccc(C(=O)Nc4nc5ccccc5s4)c3C2)nc1C(=O)O (stereo not shown) [Compound 107, 6-(8-(benzo[d]thiazol-2-ylcarbamoyl)-3,4-dihydroisoquinolin-2(1H)-yl)-3-(4-(3-(1-(2-((3-(2,6-dioxopiperidin-3-yl)-1-methyl-1H-indazol-6-yl)amino)-2-oxoethyl)-4-hydroxypiperidin-4-yl)propoxy)-2-methylphenyl)picolinic acid] | < 10 nM | A (Ymin < 30%) |
| Cn1nc(C2CCC(=O)NC2=O)c2ccc(NC(=O)CN3CCC4(CC3)CC(COc3ccc(-c5ccc(N6CCc7cccc(C(=O)Nc8nc9ccccc9s8)c7C6)nc5C(=O)O)c(C(F)(F)F)c3)C4)cc21 (stereo not shown) [Compound 131, 6-(8-(benzo[d]thiazol-2-ylcarbamoyl)-3,4-dihydroisoquinolin-2(1H)-yl)-3-(4-((7-(2-((3-(2,6-dioxopiperidin-3-yl)-1-methyl-1H-indazol-6-yl)amino)-2-oxoethyl)-7-azaspiro[3.5]nonan-2-yl)methoxy)-2-(trifluoromethyl)phenyl)picolinic acid] | < 10 nM | B (30% ≤ Ymin < 50%) |
| Cc1cc(OCCCC2CCN(CCNc3ccc4c(C5CCC(=O)NC5=O)nn(C)c4c3)CC2)ccc1-c1ccc(N2CCc3cccc(C(=O)Nc4nc5ccccc5s4)c3C2)nc1C(=O)O (stereo not shown) [Compound 179, 6-(8-(benzo[d]thiazol-2-ylcarbamoyl)-3,4-dihydroisoquinolin-2(1H)-yl)-3-(4-(3-(1-(2-((3-(2,6-dioxopiperidin-3-yl)-1-methyl-1H-indazol-6-yl)amino)ethyl)piperidin-4-yl)propoxy)-2-methylphenyl)picolinic acid] | < 10 nM | A (Ymin < 30%) |
| Cc1cc(OC2CC3(CCN(CC(=O)Nc4ccc5c(C6CCC(=O)NC6=O)nn(C)c5n4)CC3)C2)ccc1-c1ccc(N2CCc3ccnc(C(=O)Nc4nc5ccccc5s4)c3C2)nc1C(=O)O (stereo not shown) [Compound 213] | < 10 nM | A (Ymin < 30%) |
| Cc1c(OCC2CC3(CCN(CC(=O)Nc4ccc5c(C6CCC(=O)NC6=O)nn(C)c5c4F)CC3)C2)cccc1-c1ccc(N2CCc3cccc(C(=O)Nc4nc5ccccc5s4)c3C2)nc1C(=O)O (stereo not shown) [Compound 120] | 10 to 100 nM | B (30% ≤ Ymin < 50%) |
| Cc1cc(OCCCC2CCN(CCOc3ccc4c(C5CCC(=O)NC5=O)nn(C)c4c3)CC2)ccc1-c1ccc(N2CCc3cccc(C(=O)Nc4nc5ccccc5s4)c3C2)nc1C(=O)O (stereo not shown) [Compound 178, 6-[8-(1,3-benzothiazol-2-ylcarbamoyl)-3,4-dihydro-1H-isoquinolin-2-yl]-3-[4-[3-[1-[2-[3-(2,6-dioxo-3-piperidyl)-1-methyl-indazol-6-yl]oxyethyl]-4-piperidyl]propoxy]-2-methyl-phenyl]pyridine-2-carboxylic acid] | < 10 nM | A (Ymin < 30%) |
| Cc1c(OCC2CC3(CCN(CCOc4ccc5c(C6CCC(=O)NC6=O)nn(C)c5c4)CC3)C2)cccc1-c1ccc(N2CCc3cccc(C(=O)Nc4nc5ccccc5s4)c3C2)nc1C(=O)O (stereo not shown) [Compound 152, 6-(8-(benzo[d]thiazol-2-ylcarbamoyl)-3,4-dihydroisoquinolin-2(1H)-yl)-3-(3-((7-(2-((3-(2,6-dioxopiperidin-3-yl)-1-methyl-1H-indazol-6-yl)oxy)ethyl)-7-azaspiro[3.5]nonan-2-yl)methoxy)-2-methylphenyl)picolinic acid] | < 10 nM | B (30% ≤ Ymin < 50%) |
| COc1c(NC(=O)CN2CCC(CCCOc3ccc(-c4ccc(N5CCc6cccc(C(=O)Nc7nc8ccccc8s7)c6C5)nc4C(=O)O)c(C)c3)CC2)ccc2c(C3CCC(=O)NC3=O)nn(C)c12 (stereo not shown) [Compound 105, 6-[8-(1,3-benzothiazol-2-ylcarbamoyl)-3,4-dihydro-1H-isoquinolin-2-yl]-3-[4-[3-[1-[2-[[3-(2,6-dioxo-3-piperidyl)-7-methoxy-1-methyl-indazol-6-yl]amino]-2-oxo-ethyl]-4-piperidyl]propoxy]-2-methyl-phenyl]pyridine-2-carboxylic acid] | 10 to 100 nM | A (Ymin < 30%) |
| C[C@H]1C[C@H](CCCOc2cccc(-c3ccc(N4CCc5cccc(C(=O)Nc6nc7ccccc7s6)c5C4)nc3C(=O)O)c2C(F)(F)F)CCN1CC(=O)Nc1ccc2c(C3CCC(=O)NC3=O)nn(C)c2c1 (stereo partly shown) [Compound 215a] | 10 to 100 nM | B (30% ≤ Ymin < 50%) |
| Cc1c(OCCCCC2CCN(Cc3nc4cc(C5CCC(=O)NC5=O)ccc4n3C)CC2)cccc1-c1ccc(N2CCc3cccc(C(=O)Nc4nc5ccccc5s4)c3C2)nc1C(=O)O (stereo not shown) [Compound 2002] | 10 to 100 nM | C (50% ≤ Ymin < 70%) |
| Cn1nc(C2CCC(=O)NC2=O)c2ccc(NC(=O)CN3CCC4(CC3)CC(Oc3cccc(-c5ccc(N6CCc7cccc(C(=O)Nc8nc9ccccc9s8)c7C6)nc5C(=O)O)c3C(F)(F)F)C4)cc21 (stereo not shown) [Compound 169, 6-(8-(benzo[d]thiazol-2-ylcarbamoyl)-3,4-dihydroisoquinolin-2(1H)-yl)-3-(3-((7-(2-((3-(2,6-dioxopiperidin-3-yl)-1-methyl-1H-indazol-6-yl)amino)-2-oxoethyl)-7-azaspiro[3.5]nonan-2-yl)oxy)-2-(trifluoromethyl)phenyl)picolinic acid] | < 10 nM | B (30% ≤ Ymin < 50%) |
| Cc1cc(OCCCC2CCN(CC(=O)Nc3cc4c(cc3F)c(C3CCC(=O)NC3=O)nn4C)CC2)ccc1-c1ccc(N2CCc3cccc(C(=O)Nc4nc5ccccc5s4)c3C2)nc1C(=O)O (stereo not shown) [Compound 109] | 10 to 100 nM | C (50% ≤ Ymin < 70%) |
| Cc1cc(O[C@H](C)CCC2CCN(CC(=O)Nc3ccc4c(C5CCC(=O)NC5=O)nn(C)c4c3)CC2)ccc1-c1ccc(N2CCc3ccnc(C(=O)Nc4nc5ccccc5s4)c3C2)nc1C(=O)O (single isomer, unassigned) [Compound 133a] | 10 to 100 nM | B (30% ≤ Ymin < 50%) |
| Cc1cc(O[C@@H](C)CCC2CCN(CC(=O)Nc3ccc4c(C5CCC(=O)NC5=O)nn(C)c4n3)CC2)ccc1-c1ccc(N2CCc3cccc(C(=O)Nc4nc5ccccc5s4)c3C2)nc1C(=O)O (single isomer, unassigned) [Compound 225a] | 10 to 100 nM | B (30% ≤ Ymin < 50%) |
| Cn1nc(C2CCC(=O)NC2=O)c2ccc(NC(=O)CN3CCC4(CC3)CC(Oc3cccc(-c5ccc(N6CCc7cccc(C(=O)Nc8nc9ccccc9s8)c7C6)nc5C(=O)O)c3C(F)(F)F)C4)nc21 (stereo not shown) [Compound 192, 6-(8-(benzo[d]thiazol-2-ylcarbamoyl)-3,4-dihydroisoquinolin-2(1H)-yl)-3-(3-((7-(2-((3-(2,6-dioxopiperidin-3-yl)-1-methyl-1H-pyrazolo[3,4-b]pyridin-6-yl)amino)-2-oxoethyl)-7-azaspiro[3.5]nonan-2-yl)oxy)-2-(trifluoromethyl)phenyl)picolinic acid] | < 10 nM | B (30% ≤ Ymin < 50%) |
| COc1c(NC(=O)CN2CCC3(CC2)CC(Oc2cccc(-c4ccc(N5CCc6cccc(C(=O)Nc7nc8ccccc8s7)c6C5)nc4C(=O)O)c2C(F)(F)F)C3)ccc2c(C3CCC(=O)NC3=O)nn(C)c12 (stereo not shown) [Compound 166, 6-(8-(benzo[d]thiazol-2-ylcarbamoyl)-3,4-dihydroisoquinolin-2(1H)-yl)-3-(3-((7-(2-((3-(2,6-dioxopiperidin-3-yl)-7-methoxy-1-methyl-1H-indazol-6-yl)amino)-2-oxoethyl)-7-azaspiro[3.5]nonan-2-yl)oxy)-2-(trifluoromethyl)phenyl)picolinic acid] | 10 to 100 nM | B (30% ≤ Ymin < 50%) |
